Measured values from the NIST ThermoML archive (doi:10.1016/j.jct.2014.01.002).

Assay: excess molar enthalpy (molar enthalpy of mixing); xn = mol fraction of the nth substance listed
Settings: 298.15 K, 99 kPa, Liquid, Calvet calorimetry

CCCCCO [pentan-1-ol] + CCCCCC
Settings | excess molar enthalpy [kcal/mol]
x1 = 0.0241 | 0.0686
x1 = 0.0501 | 0.0848
x1 = 0.0573 | 0.0887
x1 = 0.1085 | 0.103
x1 = 0.1504 | 0.112
x1 = 0.1912 | 0.121
x1 = 0.2341 | 0.127
x1 = 0.2905 | 0.129
x1 = 0.3433 | 0.13
x1 = 0.3934 | 0.128
x1 = 0.4452 | 0.125
x1 = 0.5771 | 0.0982
x1 = 0.5794 | 0.0985
x1 = 0.6531 | 0.0798
x1 = 0.6979 | 0.0672
x1 = 0.7463 | 0.0535
x1 = 0.803 | 0.0368
x1 = 0.9021 | 0.0151

C1CCCCC1 [cyclohexane] + CCCCCC
Settings | excess molar enthalpy [kcal/mol]
x1 = 0.0524 | 0.00813
x1 = 0.1136 | 0.017
x1 = 0.1603 | 0.0232
x1 = 0.2014 | 0.0282
x1 = 0.2485 | 0.0335
x1 = 0.3022 | 0.0392
x1 = 0.3647 | 0.0442
x1 = 0.4379 | 0.049
x1 = 0.4819 | 0.0509
x1 = 0.5388 | 0.0526
x1 = 0.5621 | 0.0528
x1 = 0.6166 | 0.0526
x1 = 0.6576 | 0.0516
x1 = 0.7177 | 0.0483
x1 = 0.7702 | 0.0435
x1 = 0.8085 | 0.0392
x1 = 0.8623 | 0.0318
x1 = 0.9276 | 0.0191
